Results published in ChEMBL document CHEMBL5331074, “Design and synthesis of new adamantyl derivatives as promising antiproliferative agents” (Eur J Med Chem, 2023).

Assays:
[1] = system: OVCAR-3; test: Cytotoxicity against human OVCAR-3 cells assessed as cell growth inhibition; assay type: functional, cell-based
[2] = system: K562; test: Induction of necrosis in human K562 cells assessed as LDH release at 1.16 uM (reference value: 0.20+/- 0.02%); assay type: functional
[3] = Selectivity index, ratio of IC50 for cytotoxicity against human F180 cells to IC50 for cytotoxicity against human UACC-62 cells
[4] = target: T1, Carbonic anhydrase 12 (Homo sapiens, UniProt O43570); test: Inhibition of Carbonic anhydrase 12 (unknown origin) using p-nitrophenyl acetate as substrate preincubated for 10 mins followed by substrate addition and measured after 30 mins by microplate reader method
[5] = system: K562; test: Induction of apoptosis in human K562 cells assessed as fold increase in caspase 3/7 activity at 1.16 uM (reference value: 1.03 +/- 0.02); assay type: functional
[6] = system: K562; test: Induction of necrosis in human K562 cells assessed as LDH release at 0.58 uM (reference value: 0.20+/- 0.02%); assay type: functional
[7] = Selectivity index, ratio of IC50 for cytotoxicity against human F180 cells to IC50 for cytotoxicity against human SK-MEL-28 cells
[8] = system: MOLT-4; test: Cytotoxicity against human MOLT-4 cells assessed as cell growth inhibition; assay type: functional, cell-based
[9] = target: T2, Carbonic anhydrase 2 (Homo sapiens, UniProt P00918); test: Inhibition of Carbonic anhydrase 2 (unknown origin) at 100 uM using p-nitrophenyl acetate as substrate preincubated for 10 mins followed by substrate addition and measured after 30 mins by microplate reader method relative to control; details: time 40.0 min
[10] = system: K562; test: Induction of apoptosis in human K562 cells assessed as fold increase in caspase 3/7 activity at 0.58 uM (reference value: 1.03 +/- 0.02); assay type: functional
[11] = system: CCRF-CEM; test: Cytotoxicity against human CCRF-CEM cells assessed as cell growth inhibition; assay type: functional, cell-based
[12] = system: SF-268; test: Cytotoxicity against human SF-268 cells assessed as cell growth inhibition; assay type: functional, cell-based
[13] = Selectivity index, ratio of IC50 for cytotoxicity against human hTERT-HME1 cells to IC50 for cytotoxicity against human MCF7 cells; assay type: toxicity, cell-based; details: hTERT-HME1 cells and MCF7 cells, read-out: Ratio IC50
[14] = system: K562; test: Induction of apoptosis in human K562 cells assessed as fold increase in caspase 3/7 activity at 0.64 uM (reference value: 1.03 +/- 0.02); assay type: functional
[15] = system: K562; test: Induction of necrosis in human K562 cells assessed as LDH release at 0.32 uM (reference value: 0.20+/- 0.02%); assay type: functional
[16] = target: T1, Carbonic anhydrase 12; test: Inhibition of Carbonic anhydrase 12 (unknown origin) at 100 uM using p-nitrophenyl acetate as substrate preincubated for 10 mins followed by substrate addition and measured after 30 mins by microplate reader method relative to control; details: time 40.0 min
[17] = system: CAKI-1; test: Cytotoxicity against human CAKI-1 cells assessed as cell growth inhibition; assay type: functional, cell-based
[18] = target: T2, Carbonic anhydrase 2; test: Inhibition of Carbonic anhydrase 2 (unknown origin) using p-nitrophenyl acetate as substrate preincubated for 10 mins followed by substrate addition and measured after 30 mins by microplate reader method
[19] = Selectivity index, ratio of IC50 for cytotoxicity against human F180 cells to IC50 for cytotoxicity against human UACC-257 cells
[20] = Selectivity index, ratio of IC50 for cytotoxicity against human hTERT-HME1 cells to IC50 for cytotoxicity against human Hs-578T cells
[21] = system: Panel NCI-60 (60 carcinoma cell lines); test: Cytotoxicity against human Panel NCI-60 (60 carcinoma cell lines) assessed as mean growth inhibition; assay type: functional
[22] = system: K562; test: Induction of apoptosis in human K562 cells assessed as fold increase in caspase 3/7 activity at 0.32 uM (reference value: 1.03 +/- 0.02); assay type: functional
[23] = Selectivity index, ratio of IC50 for cytotoxicity against human F180 cells to IC50 for cytotoxicity against human SK-MEL-5 cells
[24] = system: K562; test: Induction of necrosis in human K562 cells assessed as LDH release at 0.64 uM (reference value: 0.20+/- 0.02%); assay type: functional

T1 sequence (O43570 whole entry): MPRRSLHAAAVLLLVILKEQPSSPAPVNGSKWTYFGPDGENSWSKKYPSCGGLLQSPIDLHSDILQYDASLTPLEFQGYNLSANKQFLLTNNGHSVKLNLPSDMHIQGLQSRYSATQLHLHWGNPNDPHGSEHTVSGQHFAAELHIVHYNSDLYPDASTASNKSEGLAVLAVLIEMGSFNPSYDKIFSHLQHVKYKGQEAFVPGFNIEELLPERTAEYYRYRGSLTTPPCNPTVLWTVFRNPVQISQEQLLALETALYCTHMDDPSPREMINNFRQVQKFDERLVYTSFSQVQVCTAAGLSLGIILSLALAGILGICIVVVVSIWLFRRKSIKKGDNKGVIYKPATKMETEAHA

O=C(Nc1ccc(OS(=O)(=O)c2ccc(F)cc2)cc1)C12CC3CC(CC(C3)C1)C2
IC50 [1]: 6.05 µM | Activity [2]: 3.4% | Ratio IC50 [3]: 15.9 | IC50 [4]: 0.68 µM | fold change (FC) [5]: 2.72 | Activity [6]: 1.8% | Ratio IC50 [7]: 1.7 | IC50 [8]: 5.05 µM | inhibition [9]: 39.6% | fold change (FC) [10]: 1.89 | IC50 [11]: 3.73 µM | IC50 [12]: 20.8 µM | selectivity ratio [13]: 84.7

O=C(Nc1ccc(OS(=O)(=O)c2ccccc2)cc1)C12CC3CC(CC(C3)C1)C2
fold change (FC) [14]: 3.7 | Activity [15]: 0.5% | inhibition [16]: 18.1% | IC50 [17]: 7.08 µM | IC50 [18]: 0.88 µM | Ratio IC50 [19]: 3.7 | Ratio IC50 [20]: 6.8 | inhibition (INH) [21]: 44.5% | fold change (FC) [22]: 2.05 | Ratio IC50 [23]: 3.12 | IC50 [12]: > 100 µM | Activity [24]: 2.3%
